pEC50: −log10 of the molar value.
Experiments:
[1] = molecular target: T1, glutathione-S-transferase-labeled FXR human protein (Homo sapiens, UniProt Q96RI1); assay: FXR biochemical experiment (alphascreen, coactivator recruitment); details: for pEC50: alphascreen, GST-FXR human protein with biotin-labeled steroid receptor coactivator, read-out: FXR enzymatic activity EC50; for FXR enzymatic activity Efficacy: highest signal relative to highest signal of the reference compound
T1 construct: purchased Invitrogen
T1 sequence (Q96RI1 1-486): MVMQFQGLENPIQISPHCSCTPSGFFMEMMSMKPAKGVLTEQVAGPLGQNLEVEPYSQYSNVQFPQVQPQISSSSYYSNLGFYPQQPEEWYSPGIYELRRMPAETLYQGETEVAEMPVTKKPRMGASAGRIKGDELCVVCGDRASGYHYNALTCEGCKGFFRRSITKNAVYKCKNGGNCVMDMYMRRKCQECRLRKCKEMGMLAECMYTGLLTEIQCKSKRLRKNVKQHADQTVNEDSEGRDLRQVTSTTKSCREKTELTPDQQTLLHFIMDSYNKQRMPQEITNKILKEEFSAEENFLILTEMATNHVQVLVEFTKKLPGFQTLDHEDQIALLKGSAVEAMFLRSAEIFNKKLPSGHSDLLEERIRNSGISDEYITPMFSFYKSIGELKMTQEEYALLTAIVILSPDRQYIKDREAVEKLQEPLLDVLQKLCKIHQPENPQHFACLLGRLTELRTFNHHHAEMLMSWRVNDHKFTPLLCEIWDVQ
Description: FXR Biochemical Experiment
The activation of compounds on FXR binding reaction was examined by a homogeneous proximity luminescenceamplification test (alphascreen).
Protein: glutathione-S-transferase-labeled FXR human protein (Invitrogen)
Co-activator: Biotin-labeled steroid receptor coactivator (Anaspec)
Detection reagent: homogeneous proximity luminescence amplification test (alphascreen) Detection Kit (PerkinElmer)
Compound dilution: the test compound was prepared as a 40 μM DMSO solution, and then diluted 3-fold to 10 concentration points. The reference compound was prepared as a 400 μM DMSO solution, followed by diluted 1.5-fold to 10 concentration points. The diluted DMSO solution was added to the wells of a 384-well plate in a volume of 150 nL per well.
Glutathione-S-transferase-labeled FXR human protein and biotin-labeled steroid receptor coactivator were formulated as mixed solutions with concentrations of 0.4 nM and 30 nM, respectively, which was added to the wells of the 384-well plate in a volume of 15 per well, and the plate was incubated for 1 hour at room temperature.
The experiment process was carried out with protecting from light. The incubation was performed for 1 hour at room temperature.
The experiment process was carried out by protecting from light. The incubation was performed for 1 hour at room temperature.

[2] = Liver-blood ratio experiment of mice via cassette dosing; assay type: in vivo, C57BL/6J male mice; details: for Liver concentration 0.5 h / Liver/plasma concentration ratio 0.5 h / Plasma concentration 0.5 h / Liver concentration 3 h / Liver/plasma concentration ratio 3 h / Plasma concentration 3 h: oral cassette 2 mg/kg/compound
Description: Six C57BL/6J male mice were grouped as one oral group. The preparation contained 5 kinds of the developed drugs, and 2 mg/kg/compound was intragastrically administered (the solvent was 0.5% HPMC aqueous solution). The five compounds were firstly dissolved in the solvent, respectively, by ultrasonication or vortex, to form 1 mg/mL solutions (clear solution or suspension), and then the solutions of the five compound were mixed in equal volumes (1:1:1:1:1, v:v:v:v:v) in a glass bottle. After intragastrical oral administration, plasma and liver tissue samples were collected from 3 animals at 0.5 hours after administration; corresponding samples were collected from the other 3 animals at 3 hours after administration. After collection, the liver tissue was homogenized by using ice-cold homogenization buffer (methanol: 15 mM PBS buffer (pH 7.4)=1:2, v:v) according to liver weight: homogenization buffer volume=1:3. Plasma and liver tissue samples were analyzed by using a five-in-one LC-MS/MS analysis method developed in advance. Plasma concentrations and liver tissue homogenate concentrations were obtained, and the concentration ratio of liver tissue to plasma was calculated by using Excel.

[3] = molecular target: T2, FXR (FXR HEK 293T DA cell line) (Homo sapiens, UniProt Q96RI1); assay: FXR cell experiment (β-lactamase reporter gene); assay type: cell-based
T2 construct: The UAS-driven beta-lactamase is the reporter
T2 sequence (Q96RI1 262-486 limits assumed): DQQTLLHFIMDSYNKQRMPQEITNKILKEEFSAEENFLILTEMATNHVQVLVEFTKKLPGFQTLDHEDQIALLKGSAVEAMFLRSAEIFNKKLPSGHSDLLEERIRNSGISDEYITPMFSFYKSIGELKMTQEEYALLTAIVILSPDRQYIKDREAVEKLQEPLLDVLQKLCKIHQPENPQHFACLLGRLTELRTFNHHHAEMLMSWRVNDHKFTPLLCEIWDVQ
Description: 2. Cell culture medium: DMEM medium supplemented with 10% serum and Penicillin/Streptomycin (1×).
3. Detection reagent: GeneBLAzer® Reporter Gene Detection Kit (Invitrogen)
1. Compound dilution: the test compound was prepared as a 100 μM DMSO solution, and then the compound was diluted 3-fold to 10 concentration points. The reference compound was prepared as a 100 μM DMSO solution, and then diluted 1.3-fold to 10 concentration points. The diluted DMSO solution was added to the wells of a 384-well plate in a volume of 200 nL per well.
3. The 384-well microplate was incubated at 37° C., 5% CO2 for 16 hours.
4. 6 μL of 1 mM LiveBLAzer™-FRET B/G (CCF4-AM) substrate was mixed with 60 μL of B solution and 934 μL of C solution, which was added to the wells of a 384-well plate in a volume of 8 μL per well.
5. The 384-well microplate was incubated in dark for 2 hours at room temperature.
7. Analytical data: the data were analyzed by using Prism 5.0 to calculate the EC50 value of the activation of the compound.

[4] = Pharmacokinetics in mice administrated with single compound; assay type: in vivo, C57BL/6J male mice; details: for drug exposure compared with obeticholic acid / peak concentration compared with obeticholic acid: oral, same dosage (10 mg/kg), in words
Description: Twelve C57BL/6J male mice were randomly divided into two groups, 6 mice in each group. […] Plasma (using K2-EDTA as anticoagulant) samples were taken at 0.083, 0.25, 0.5, 1, 2, 4, 6, 8 and 24 hours after administration for the intravenous group; and plasma samples were taken at 0.25, 0.5, 1, 2, 4, 6, 8 and 24 hours after administration for the oral group. For 6 animals in each group, blood samples were collected for 3 animals at one time point, and the first batch of 3 animals was alternately sampled with the second batch of 3 animals. Plasma sample analysis was performed by using LC-MS/MS. The obtained plasma concentrations were plotted against time, and PK parameters were calculated by using Phoenix WinNonlin 6.3.

[5] = male, C57BL/6J, mouse, plasma, oral (intragastric) 10 mg/kg, 0.5% HPMC
[6] = oral, same dosage (2 mg/kg), 0.5 hours and 3 hours, in words

Row | SMILES | pEC50 [1] | FXR enzymatic activity Efficacy [1] | Liver concentration 0.5 h [2] | Liver/plasma concentration ratio 0.5 h [2] | Plasma concentration 0.5 h [2] | Liver concentration 3 h [2] | Liver/plasma concentration ratio 3 h [2] | Plasma concentration 3 h [2] | pEC50 ([3]; FXR HEK 293T DA cells, β-lactamase reporter, 16 hours, read-out: FXR cell viability EC50) | FXR cell viability Efficacy ([3]; highest signal relative to reference compound CDCA) | drug exposure compared with obeticholic acid [4] | peak concentration compared with obeticholic acid [4] | AUC [4, 5] | Cmax [4, 5] | Tmax [4, 5] | drug concentrations in the liver compared with control compound [2, 6] | liver/plasma concentration ratios compared with control compound [2, 6]
1 | CC[C@H]1[C@@H](O)[C@@H]2[C@H](CC[C@]3(C)[C@@H]([C@H](C)CCOc4ncc(C(=O)O)cc4F)CC[C@@H]23)[C@@]2(C)CC[C@@H](O)C[C@@H]12 [The compound of formula I-F] | 8.60 | 138% |  |  |  |  |  |  |  |  |  |  |  |  |  |  | 
2 | CC[C@H]1[C@@H](O)[C@@H]2[C@H](CC[C@]3(C)[C@@H]([C@H](C)CCC(=O)O)CC[C@@H]23)[C@@]2(C)CC[C@@H](O)C[C@@H]12 [Obeticholic acid, obeticholic acid, reference compound] |  |  | 711 nM | 5 | 0.151 µM | 625 nM | 10 | 0.063 µM |  |  |  |  |  |  |  |  | 
3 | CC[C@H]1[C@@H](O)[C@@H]2[C@H](CC[C@]3(C)[C@@H]([C@H](C)CCOc4ncc(C(=O)O)cc4Cl)CC[C@@H]23)[C@@]2(C)CC[C@@H](O)C[C@@H]12 [The compound of formula I-Cl] |  | 248% |  |  |  |  |  |  | 8.52 | 150% | higher than that of the control compound obeticholic acid | higher than that of the control compound obeticholic acid |  |  |  |  | 
4 | CC[C@H]1[C@@H](O)[C@@H]2[C@H](CC[C@]3(C)[C@@H]([C@H](C)CCOc4ccc(C(=O)O)cn4)CC[C@@H]23)[C@@]2(C)CC[C@@H](O)C[C@@H]12 [The compound of formula I-H] | 8.22 | 249% | 1959 nM | 24 | 0.083 µM | 701 nM | 16 | 0.045 µM |  |  | higher than that of the control compound obeticholic acid | close to that of the control compound obeticholic acid | 2340 nM·h | 0.936 µM | 30 min | higher than those of the control compound | higher than those of the control compound

Source: patent US11059854B2, “Method for preparing steroid derivative FXR agonist” (Chia Tai Tianqing Pharmaceutical Group Co., Ltd., priority 2017, dated 2021)
